Test results from publication PMC6154719 (Molecules : A Journal of Synthetic Chemistry and Natural …, 2017).

Tests used:
Format in all cases: in vitro ADME
CYP2B/3A = CYP2B/3A (BROD activity, benzyloxyresorufin O-debenzylation) in human liver microsomes; conditions: for Specific Activity, CYP2B/3A (BROD activity): in the presence of 100 µM sesquiterpene, control 1.22 ± 0.05; for inhibition at 5 µM: liver microsomes, human, 5 µM inhibitor; for inhibition at 5 µM / IC50: probe benzyloxyresorufin
Procedure: (§1) Enzyme activities were assayed in human and rat liver cytosolic and microsomal fractions. The enzyme assays (each performed in 4–8 replicates) were repeated three times (HPLC measurement of CYP activities was repeated only twice, Table 3). Inhibition studies were carried out by incubation of specific substrates in the presence of sesquiterpenes (in the range 0–100 µM).
(§2) Enzyme activities of individual CYP forms were measured according to established protocols. The following microsomal CYP activities were tested: CYP2A6, coumarin 7-hydroxylation; CYP2B6, 7-ethoxy-4-(trifluoromethyl)coumarin 7-deethylation, CYP2C9, diclofenac 4′-hydroxylation, CYP2C19 assay, S-mephenytoin 4′-hydroxylation, CYP2D6 on bufuralol 1′-hydroxylation, CYP2E1, chlorzoxazone 6-hydroxylation and CYP3A4, testosterone 6β-hydroxylation, and midazolam 1′-hydroxylation. Activities were measured using the Prominence HPLC system (Shimadzu, Kyoto, Japan), equipped with a LiChroCART 250-4 LiChrospher 100 RP-18 column or Chromolith®HighResolution RP-18 end-capped column (Merck, Darmstadt, Germany) and UV or fluorescence detection, according to the cited literature. Further incubation details are described either in the corresponding references, as well as in the papers from this laboratory e.g., [42, 43, 44]. CYP1A2, 7-ethoxyresorufin O-deethylation, and CYP3A4/2B6 (human), CYP2B1 (rat), benzyloxyresorufin O-debenzylation were measured using the microplate reader Tecan Infinite M200 (Tecan Group; Mannedorf, Switzerland).
(§3) Sesquiterpenes CNER, TNER and FAR, non-volatile liquids, were pipetted, and proper concentration was calculated according to density. All compounds were dissolved in DMSO. The final solvent concentration in the inhibition assays was 1%, which had no effect on the enzyme activity (data not shown). Non-enzymatic interference of sesquiterpenes with some compounds in the reaction mixtures (e.g., fluorescence enhancing or quenching) was considered and excluded. All experiments were performed in three replicates, if not stated otherwise.
(§4) CNER, TNER and FAR at a fixed concentration of 100 µM were screened for inhibition of cytosolic AKR1A1, AKR1C, CBR1, NQO1, SULT, and GST, and microsomal CYPs and UGT. The degree of inhibition caused by sesquiterpenes was compared with non-inhibited control reactions, which contained solvent without sesquiterpenes.
(§5) The concentration of sesquiterpenes required for 50% inhibition of enzyme activity, the IC50 value, was determined. Their final concentrations in the reaction mixture were proposed to cover the entire inhibitory range of these compounds (1–100 µM). The IC50 values for each sesquiterpene were determined by plotting sigmoidal dose response curves of specific enzyme activity vs. logarithm of sesquiterpene concentration using GraphPad Prism version 6.07 for Windows (GraphPad Software Inc., La Jolla, CA, USA).
(§6) The kinetic inactivation study of the CYP1A2 (EROD activity) and CYP2B/3A (BROD activity), both in rat and human, with TNER, was performed to find out the mechanism of enzyme inhibition by this sesquiterpene. Mechanism of EROD and BROD inhibition was tested at the final ethoxyresorufin or benzyloxyresorufin concentrations 0.5–5.0 µM. The concentration of TNER was 5.0 µM.
(§7) Experimental data were fitted to the Michaelis-Menten equation, basic kinetic parameters were determined using the program GraphPad Prism version 6.07 for Windows. The type of inhibition was estimated using a Lineweaver-Burk (double-reciprocal) plot.

UGT = UGT activity in rat liver subcellular fraction; conditions: 100 µM sesquiterpene, control 16.2 ± 0.98
Procedure: as §1
(§8) The assays of all other enzymes were based on spectrophotometric detection of product formed or detection of decreasing substrate/cofactor levels using microplate reader Tecan Infinite M200 in cytosolic or microsomal fractions. Enzyme activities were determined using slight modifications of previously-published methods: carbonyl reducing enzymes (AKR1A, AKR1C, CBR1 [45], NQO1 [46]), UDP-glucuronosyltransferase (UGT [47]), sulfotransferase (SULT [48]), and cytosolic glutathione-S-transferase (GST [49]).
as §3, §4

CYP1A2 = biological target: T1, CYP1A2 (Rattus norvegicus, UniProt P04799); assay: CYP1A2 (EROD activity, 7-ethoxyresorufin O-deethylation) in rat liver microsomes; conditions: for Specific Activity, CYP1A2 (EROD activity): in the presence of 100 µM sesquiterpene, control 22.8 ± 0.1
T1 construct: Frozen liver (both rat and human) was thawed; from tissue; host or cells: rat liver microsomal fraction
T1 sequence (P04799 1-513): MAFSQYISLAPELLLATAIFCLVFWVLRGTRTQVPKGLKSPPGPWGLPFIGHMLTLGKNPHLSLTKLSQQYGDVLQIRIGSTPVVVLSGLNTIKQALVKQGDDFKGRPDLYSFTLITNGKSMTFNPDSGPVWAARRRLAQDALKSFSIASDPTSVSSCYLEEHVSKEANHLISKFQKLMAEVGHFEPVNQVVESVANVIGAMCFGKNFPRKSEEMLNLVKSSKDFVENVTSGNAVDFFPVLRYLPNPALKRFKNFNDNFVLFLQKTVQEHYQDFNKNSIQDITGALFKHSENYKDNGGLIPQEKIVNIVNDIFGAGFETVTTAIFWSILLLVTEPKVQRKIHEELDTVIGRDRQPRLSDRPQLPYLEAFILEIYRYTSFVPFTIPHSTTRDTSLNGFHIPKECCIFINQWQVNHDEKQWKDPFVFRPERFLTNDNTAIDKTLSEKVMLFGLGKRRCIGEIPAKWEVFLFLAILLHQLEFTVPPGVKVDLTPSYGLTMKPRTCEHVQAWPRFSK
Procedure: as §1, §2, §3, §4, §5, §6, §7

CBR1 = biological target: T2, CBR1 (Homo sapiens, UniProt P16152); assay: CBR1 activity in human liver subcellular fraction; conditions: 100 µM sesquiterpene, control 6.62 ± 1.84
T2 construct: Frozen liver (both rat and human) was thawed; from tissue; host or cells: human liver cytosolic fraction
T2 sequence (P16152 1-277): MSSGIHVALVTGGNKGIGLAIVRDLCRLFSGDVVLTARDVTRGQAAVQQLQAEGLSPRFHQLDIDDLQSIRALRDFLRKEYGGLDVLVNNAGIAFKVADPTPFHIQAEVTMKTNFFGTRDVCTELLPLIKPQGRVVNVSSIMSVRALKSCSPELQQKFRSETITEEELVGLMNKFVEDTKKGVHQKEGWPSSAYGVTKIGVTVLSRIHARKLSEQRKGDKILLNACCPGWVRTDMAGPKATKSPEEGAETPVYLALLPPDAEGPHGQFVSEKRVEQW
Procedure: as §1, §8, §3, §4

CYP3A4/5 = CYP3A4/5 testosterone 6β-hydroxylation in human liver microsomes (HPLC); conditions: substrate testosterone, n = 2
Procedure: as §1, §2, §5

CYP2A6 = biological target: T3, CYP2A6 (Homo sapiens, UniProt P11509); assay: CYP2A6 coumarin 7-hydroxylation in human liver microsomes (HPLC); conditions: substrate coumarin, n = 2
T3 construct: other CYP-mediated activities in human liver microsomes; from tissue; host or cells: human liver microsomal fraction
Procedure: as §1
as §2, with “Further incubation details are described either in the corresponding references, as well as in the papers from this laboratory e.g., [42, 43, 44].” left out, “Switzerland). […]” for “Switzerland).”

[1] = tested on: CYP2B/3A (CYP2B1, BROD activity); assay: CYP2B/3A (BROD activity, benzyloxyresorufin O-debenzylation) in rat liver microsomes; conditions: probe benzyloxyresorufin (O-debenzylation), 0.5-5.0 µM; rat liver microsomes, BROD activity
Procedure: as §1, §2, §3, §4, §5, §6, §7

[2] = human, liver microsomes, probe testosterone

T3 sequence (P11509 whole entry): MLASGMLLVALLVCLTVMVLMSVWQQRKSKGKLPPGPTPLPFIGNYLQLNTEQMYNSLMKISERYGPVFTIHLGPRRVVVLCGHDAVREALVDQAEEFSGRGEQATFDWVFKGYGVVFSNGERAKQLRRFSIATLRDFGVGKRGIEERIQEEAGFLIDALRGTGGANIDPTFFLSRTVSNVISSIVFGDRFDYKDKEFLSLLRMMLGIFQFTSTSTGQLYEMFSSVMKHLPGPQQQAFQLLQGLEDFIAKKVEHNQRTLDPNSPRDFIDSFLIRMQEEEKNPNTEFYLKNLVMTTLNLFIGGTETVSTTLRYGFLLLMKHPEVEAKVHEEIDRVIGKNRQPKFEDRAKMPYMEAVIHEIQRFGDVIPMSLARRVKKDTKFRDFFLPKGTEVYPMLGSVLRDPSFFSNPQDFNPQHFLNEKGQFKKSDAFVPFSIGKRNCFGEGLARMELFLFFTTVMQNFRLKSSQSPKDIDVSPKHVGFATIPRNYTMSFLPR

| SMILES | Specific Activity, CYP2B/3A (BROD activity) (CYP2B/3A; human liver microsomes) [pmol/mg/min] | inhibition at 5 µM (CYP2B/3A) [%] | IC50 (CYP2B/3A; human liver microsomes) [µM] | Specific activity, UGT (UGT) [nmol/mg/min] | IC50 (CYP1A2; rat liver microsomes) [µM] | Specific Activity, CYP1A2 (EROD activity) (CYP1A2; rat liver microsomes) [pmol/mg/min] | Specific activity, CBR1 (CBR1) [nmol/mg/min] | IC50 (CYP3A4/5; [2]) [µM] | IC50 (CYP2A6) [µM] | K’M (CYP2B/3A; human liver microsomes, benzyloxyresorufin 0.5–5.0 µM in the presence of TNER 5 µM, KM without TNER 0.93 ± 0.22) [µM] | V’MAX (CYP2B/3A; human liver microsomes, benzyloxyresorufin 0.5–5.0 µM in the presence of TNER 5 µM, VMAX without TNER 2.27 ± 0.17) [nM/min] | type of inhibition, BROD activity (CYP2B/3A; human microsomes, 5 µM TNER, benzyloxyresorufin 0.5–5.0 µM) | Ki [1] [µM] | Ki (CYP1A2; rat liver microsomes, EROD activity) [µM] | K’M (CYP1A2; rat liver microsomes, ethoxyresorufin 0.5–5.0 µM in the presence of TNER 5 µM, KM without TNER 1.64 ± 0.45) [µM] | V’MAX (CYP1A2; rat liver microsomes, ethoxyresorufin 0.5–5.0 µM in the presence of TNER 5 µM, VMAX without TNER 4.32 ± 0.47) [nM/min] | type of inhibition, CYP1A2 (EROD) (CYP1A2; rat microsomes, 5 µM TNER, ethoxyresorufin 0.5–5.0 µM) | IC50 (CYP3A4/5) [µM] |
| --- | --- | --- | --- | --- | --- | --- | --- | --- | --- | --- | --- | --- | --- | --- | --- | --- | --- | --- |
| C=CC(C)(O)CC/C=C(/C)CCC=C(C)C (stereo not drawn) [CNER, cis-nerolidol] | 0.168 ± 0.007 | 71 | 1.32 | 15.9 ± 1.11 | 5.7 | 2.16 ± 0.04 | 7.17 ± 0.56 | 186 ± 125 | – | – | – | – | – | – | – | – | – | – |
| CC(C)=CCC/C(C)=C/CC/C(C)=C/CO [FAR, farnesol] | 0.033 ± 0.004 | 85 | 1.78 | 14.3 ± 3.15 | 16.1 | 1.55 ± 0.02 | 6.83 ± 0.70 | – | 85.9 ± 22.9 | – | – | – | – | – | – | – | – | – |
| C=CC(C)(O)CC/C=C(\C)CCC=C(C)C (stereo not drawn) [TNER, trans-nerolidol] | 0.188 ± 0.005 | 68 | 2.4 | 16.4 ± 2.46 | 4.38 | 1.53 ± 0.03 | 5.67 ± 0.67 | 51 | – | 0.94 ± 0.39 | 0.74 ± 0.10 | non-competitive | 0.55 ± 0.11 | 4.68 ± 0.66 | 1.89 ± 0.49 | 2.21 ± 0.24 | non-competitive | 50.5 ± 13.5 |
